≈ marks a conversion by molar mass, not a printed value.
Columns and labels:
Aspergillus niger [1] = test: Alternate Minimum Inhibitory Concentrations Test (Table 4), A.n; assay type: cell-based; settings: Table 4 alternate test, 250 ppm to 0.8 ppm in TSB
Aureobasidium pullulans [2] = test: Alternate Minimum Inhibitory Concentrations Test (Table 4), A.p; assay type: cell-based; settings: Table 4 alternate test, 250 ppm to 0.8 ppm in TSB
Candida albicans = test: Alternate Minimum Inhibitory Concentrations Test (Table 4), C.alb; assay type: cell-based; settings: Table 4 alternate test, 250 ppm to 0.8 ppm in TSB
Escherichia coli [3] = test: Alternate Minimum Inhibitory Concentrations Test (Table 4), E.c; assay type: cell-based; settings: Table 4 alternate test, 250 ppm to 0.8 ppm in TSB
Pseudomonas aerugenosa [4] = test: Alternate Minimum Inhibitory Concentrations Test (Table 4), Ps.ae; assay type: cell-based; settings: Table 4 alternate test, 250 ppm to 0.8 ppm in TSB
Pseudomonas fluorescens [5] = test: Alternate Minimum Inhibitory Concentrations Test (Table 4), Ps.fl; assay type: cell-based; settings: Pseudomonas fluorescens; Table 4 alternate test; 250 ppm to 0.8 ppm in TSB, 72 hours, 30° C.; read-out: MIC Ps.fl
Procedure, shortened: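 Broth microdilution MIC in TSB: compound (from acetone stock) serially diluted 1:1 from 250 ppm to 0.8 ppm, inoculated with diluted 24 h culture. After 3 days at 30 °C, the lowest concentration with no growth was recorded as MIC.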

Staphylococcus aureus [6] = test: Alternate Minimum Inhibitory Concentrations Test (Table 4), S.a; assay type: cell-based; settings: Table 4 alternate test, 250 ppm to 0.8 ppm in TSB
Piricularia oryzae = test: whole plant or invertebrate; assay type: in vivo; settings: Pyricularia oryzae; for pest or weed control at 100 ppm: read-out: % Control RB, application rate 100 ppm
[7] = system: Pellicularia filamentosa (f. sp. sasiki); test: whole plant or invertebrate; assay type: in vivo; settings: 120 h; read-out: % Control RSB
Phytophthora infestans = test: whole plant or invertebrate; assay type: in vivo; settings: Phytophthora infestans, in Solanum lycopersicum, 96 h; for pest or weed control at 100 ppm: read-out: % Control TLB, application rate 100 ppm; for pest or weed control at 200 ppm: read-out: % Control TLB, application rate 200 ppm
[8] = system: Puccinia recondita (f. sp. tritici Races PKB and PLD); test: whole plant or invertebrate; assay type: in vivo; settings: Puccinia recondita, 240 h; read-out: % Control WLR
[9] = system: Erysiphe graminis (f. sp. tritici); test: whole plant or invertebrate; assay type: in vivo; settings: Blumeria graminis; read-out: % Control WPM
Aspergillus niger [10] = test: Broth two-fold serial dilution MIC test (Table 3), A.n; assay type: cell-based; settings: dilution series 500 to 4 ppm
Description: (§1) A minimum inhibitory concentration (MIC) value is obtained using a broth, two-fold serial dilution test performed as follows: A stock solution or dispersion of the test compound, typically at a concentration of 1%, is made in a 5:3:2 solvent solution of acetone, methanol, and water. A volume of the stock solution is dispensed into culture media to give an initial starting test concentration of 500 ppm compound.
(§2) When the test is ready to be done, each vessel in the dilution series, except the first vessel, contains an equal volume of compound free broth. The first vessel contains twice the volume of broth with the starting concentration of test compound. One half of the broth from the first vessel is transferred to the second vessel. After being mixed, one half the resulting volume is removed from the second vessel and transferred to the third vessel. The entire cycle is repeated sufficiently to give a series of concentrations amounting to 500, 250, 125, 63, 31, 16, 8, and 4 ppm, respectively.
(§3) Each vessel is then inoculated with a cell suspension of the appropriate test organism. Bacteria are grown in broth and fungi on agar slants for a time and at a temperature appropriate to the species being tested. At the end of the growth period, the broth is vortexed to disperse the cells. In the case of fungi, the spores are harvested by pipetting water onto the slant and dislodging the spores with a sterile loop. The cell/spore suspension is standardized by controlling incubation time, temperature, and the volume of the diluent. The suspension is then used to inoculate the vessels containing the broth compound. The vessels are then incubated at the appropriate temperature. After the incubation, the vessels are examined for growth/no growth. The minimum inhibitory concentration (MIC) is defined as the lowest concentration of compound that results in complete inhibition of growth of the test organism.

Aureobasidium pullulans [11] = test: Broth two-fold serial dilution MIC test (Table 3), A.p; assay type: cell-based; settings: dilution series 500 to 4 ppm
Description: as §1, §2, §3
Aureobasidium pullulans (A.p)

Escherichia coli [12] = test: Broth two-fold serial dilution MIC test (Table 3), E.c; assay type: cell-based; settings: gram negative, dilution series 500 to 4 ppm
Description: as §1, §2, §3
Escherichia coli (E.c), gram negative

Pseudomonas aerugenosa [13] = test: Broth two-fold serial dilution MIC test (Table 3), Ps.ae; assay type: cell-based; settings: gram negative, dilution series 500 to 4 ppm
Description: as §1, §2, §3
Pseudomonas aerugenosa (Ps.ae), gram negative

Pseudomonas fluorescens [14] = test: Broth two-fold serial dilution MIC test (Table 3), Ps.fl; assay type: cell-based; settings: gram negative, dilution series 500 to 4 ppm
Description: as §1, §2, §3
Pseudomonas fluorescens (Ps.fl), gram negative

Staphylococcus aureus [15] = test: Broth two-fold serial dilution MIC test (Table 3), S.a; assay type: cell-based; settings: gram positive, dilution series 500 to 4 ppm
Description: as §1, §2, §3
Staphylococcus aureus (S.a), gram positive

[16] = system: Pseudoperonospora cubensis; test: whole plant or invertebrate; assay type: in vivo; settings: Pseudoperonospora cubensis, in Cucumis sativus, 168 h; read-out: % Control CDM
[17] = system: Puccinia graminis (f. sp. tritici Race 15B-2); test: whole plant or invertebrate; assay type: in vivo; settings: Puccinia graminis, 336 h, read-out: % Control WSR
Pythium ultimum = Pythium ultimum in vitro Fungitoxicity Assay in liquid culture; assay type: cell-based, Pythium ultimum (ATCC 26083); settings: Globisporangium ultimum; mycelial dry weight, 48 h at 25° C., shaking at 60 rpm; read-out: EC 50
Procedure: Selected compounds of Examples 1-120 were subjected also to the following in vitro fungitoxicity assay against Pythium ultimum in a liquid culture, with the results as indicated in Table 6.
Pythium ultimum Fungitoxicity Assay
A dilution series of the test compound was prepared in dimethylsulfoxide, and 0.1 ml of each dilution was added to 19.9 ml of a liquid asparagine-sucrose medium (D. C. Erwin and K. Katznelson (1971), Can. J. Microbiol. 7, 15) in 9 cm diameter petri dishes to give the desired final concentrations of test compound. Plates were inoculated with mycelial plugs, 7 mm diameter, taken from the growing edge of 48 h old cultures of Pythium ultimum, (ATCC 26083), grown on potato dextrose agar. Two replicate plates were used for each treatment. The increase in mycelial dry weight was determined after growth for 48 h at 25° C. with shaking at 60 rpm. EC50 values were calculated from dose response curves.

Q: `CCCCCCCCNC(=O)/C=C\SC(=O)CCCl` [Compound 24, N-octyl-cis-3-[(3-chloropropanoyl)thio]acrylamide] was tested. Which MIC (Aspergillus niger [1]) did it give?
A: 63 µg/mL (≈ 206 µM)

Q: What about the MIC (Aureobasidium pullulans [2]) of the same molecule?
A: < 2 µg/mL

Q: And the MIC (Candida albicans)?
A: 12 µg/mL (≈ 39.2 µM)

Q: What about the MIC (Escherichia coli [3]) of the same molecule?
A: > 250 µg/mL

Q: And the MIC (Pseudomonas aerugenosa [4])?
A: > 250 µg/mL

Q: What about the MIC (Pseudomonas fluorescens [5]) of the same molecule?
A: > 250 µg/mL

Q: And the MIC (Staphylococcus aureus [6])?
A: > 250 µg/mL

Q: What about the pest or weed control at 100 ppm (Piricularia oryzae) of the same molecule?
A: 0%

Q: What about the pest or weed control at 100 ppm [7] of the same molecule?
A: 0%

Q: And the pest or weed control at 100 ppm (Phytophthora infestans)?
A: 95%

Q: What about the pest or weed control at 100 ppm [8] of the same molecule?
A: 0%

Q: What about the pest or weed control at 100 ppm [9] of the same molecule?
A: 0%

Q: What does the source list for `CCCCCCCCNC(=O)/C=C\SC(=O)c1ccc(C)cc1C` [Compound 43, N-octyl-cis-3-[(2,4-dimethylbenzoyl)thio]acrylamide]?
A: MIC (Aspergillus niger [10]): > 500 µg/mL; MIC (Aureobasidium pullulans [11]): 16 µg/mL (≈ 46 µM); MIC (Escherichia coli [12]): > 500 µg/mL; MIC (Pseudomonas aerugenosa [13]): > 500 µg/mL; MIC (Pseudomonas fluorescens [14]): > 500 µg/mL; MIC (Staphylococcus aureus [15]): > 500 µg/mL; pest or weed control at 50 ppm [16]: 50%; pest or weed control at 100 ppm (Piricularia oryzae): 0%; pest or weed control at 100 ppm (Phytophthora infestans): 0%; pest or weed control at 100 ppm [8]: 0%; pest or weed control at 100 ppm [9]: 0%; pest or weed control at 200 ppm [17]: 50%; EC50 (Pythium ultimum): 5.2 µg/mL (≈ 15 µM)

Q: Which MIC (Aspergillus niger [1]) does the source give for `CCCCCCCCNC(=O)/C=C\SC(=O)c1ccc([N+](=O)[O-])c(OC)c1` [Compound 105, N-octyl-cis-3-[(3-methoxy-4-nitrobenzoyl)thio]acrylamide] here?
A: 24 µg/mL (≈ 60.8 µM)

Q: And the MIC (Aureobasidium pullulans [2])?
A: < 2 µg/mL

Q: What about the MIC (Candida albicans) of the same molecule?
A: < 2 µg/mL

Q: And the MIC (Escherichia coli [3])?
A: > 250 µg/mL

Q: And the MIC (Pseudomonas aerugenosa [4])?
A: > 250 µg/mL

Q: And the MIC (Pseudomonas fluorescens [5])?
A: ≥ 125 µg/mL

Q: And the MIC (Staphylococcus aureus [6])?
A: > 250 µg/mL

Q: What about the pest or weed control at 200 ppm [16] of the same molecule?
A: 90%

Q: What about the pest or weed control at 200 ppm (Phytophthora infestans) of the same molecule?
A: 0%

Q: What about the pest or weed control at 200 ppm [8] of the same molecule?
A: 0%

Q: What about the pest or weed control at 200 ppm [9] of the same molecule?
A: 0%

Q: `C#CCNC(=O)/C=C\SC(=O)c1ccccc1` [Compound 113, N-(2-propynyl)-cis-3-(benzoylthio)acrylamide] was tested. Which MIC (Aspergillus niger [1]) did it give?
A: ≥ 250 µg/mL

Q: What about the MIC (Aureobasidium pullulans [2]) of the same molecule?
A: 31 µg/mL (≈ 126 µM)

Q: And the MIC (Candida albicans)?
A: ≥ 125 µg/mL

Q: What about the MIC (Escherichia coli [3]) of the same molecule?
A: 31 µg/mL (≈ 126 µM)

Q: And the MIC (Pseudomonas aerugenosa [4])?
A: 125 µg/mL (≈ 510 µM)

Q: And the MIC (Pseudomonas fluorescens [5])?
A: 63 µg/mL (≈ 257 µM)

Q: What about the MIC (Staphylococcus aureus [6]) of the same molecule?
A: 63 µg/mL (≈ 257 µM)

Q: What about the pest or weed control at 200 ppm [16] of the same molecule?
A: 50%

Q: And the pest or weed control at 200 ppm (Piricularia oryzae; read-out: % Control RB, application rate 200 ppm)?
A: 0%

Q: And the pest or weed control at 200 ppm (Phytophthora infestans)?
A: 0%

Q: What about the pest or weed control at 50 ppm [8] of the same molecule?
A: 25%

Q: And the pest or weed control at 200 ppm [9]?
A: 0%

Q: And the EC50 (Pythium ultimum)?
A: 6.9 µg/mL (≈ 28.1 µM)
